In paper PMC11172460 (International Journal of Molecular Sciences, 2024):
Like-named read-outs stand apart in the source and are kept apart here.

What was measured:
[1] = rodents and humans, ranging from a few minutes to 30 min; cited from earlier work
[2] = same tristearin carriers; cited from earlier work
[3] = rat brain homogenates, cited from earlier work; for amount hydrolyzed: within 6 h
[4] = rat liver homogenates, cited from earlier work
[5] = parameters: method as in PMID 10669289; conditions: 1-octanol/water; cited from earlier work
differentiated N2a cells [6] = assay: MTT assay of H2O2-altered viability (neuroprotection); format: cell-based, mouse; conditions: 100 µM H2O2 for 24 h
Protocol: (§1) N2a cells were seeded on T75 flasks and grown in Dulbecco’s Modified Eagle Medium (DMEM) containing Glutamax, supplemented with 100 μg/mL streptomycin, 100 IU/mL penicillin, and 10% fetal bovine serum (FBS) in a humidified 5% CO2 atmosphere at 37 °C. After two passages by trypsinization, cells were seeded at a density of 5 × 10^3 cells/well in 12-well plates with 2 mL of DMEM or at a density of 5 × 10^2 cells/well in 96-well plates with 0.2 mL of DMEM, depending on the study (see below). For neural differentiation, N2a cells were allowed to adhere and proliferate in wells for 4 days; then, after washing once with serum-free DMEM, differentiating medium composed of DMEM containing 1% HS and 20 μM all-trans-retinoic acid (atRA) was added in both the seeding conditions, up to 6 days of differentiation, after which the cells were used for the experiments.
The MTT assay was also carried out to determine the neuroprotective effect of Fer-Ger on H2O2-induced cell oxidative stress in N2a neuronal cells. Briefly, N2a cells (5 × 10^2) were seeded and differentiated into 96-well plates, as reported above. Then, cells were incubated with 1 µM and 5 µM Fer-Ger dissolved in DMEM containing 0.5% HS for 1 h in a humidified 5% CO2 atmosphere at 37 °C. The experimental design therefore included cells incubated with only culture medium as a control and cells incubated for 24 h with 100 µM H2O2 as a damage-inducing agent after 1 h of preincubation in the absence or presence of 1 µM or 5 µM Fer-Ger. Then, 20 μL of MTT (5 mg/mL) was added into the 200 µL of the incubation medium. Four hours later, the medium containing MTT was aspirated and replaced by 100 µL of dimethyl sulfoxide (DMSO) solubilization agent for 1 h at 37 °C in an orbital shaker incubator. Finally, the absorbance of each well was measured at 570 nm using a microtiter plate reader (Sunrise® Microplate Reader, Tecan Trading AG, Männedorf, Switzerland).

differentiated N2a cells [7] = assay: DCFH-DA assay of intracellular ROS production; format: cell-based, mouse
Protocol: as §1
The potential antioxidant effect of Fer-Ger was evaluated according to the original method of Wang and Joseph. In this method, the nonpolar 2′,7′-dichlorofluorescin diacetate (DCFH-DA) enters the intact cells and is hydrolyzed by intracellular esterases to nonfluorescent DCFH carboxylate anion, which remains entrapped and becomes the high fluorescent dichlorofluorescin (DCF) after oxidation by free radicals generated by a stressor, such as H2O2. Therefore, H2O2-induced intracellular ROS production was measured in N2a cells by a florescence intensity assay following exposure to the oxidation-sensitive dye DCFH-DA. N2a cells were seeded at a density of 1 × 10^4 cells/well in a black-coated and clear bottom 96-well plate and neuron-differentiated as reported above. After 6 days, differentiating medium in N2a cells was replaced with pre-warmed phenol-red-free and serum-free DMEM containing 10 µM DCFH-DA and incubated for 30 min in the dark in a humidified 5% CO2 atmosphere at 37 °C. The 10 µM DCFH-DA loading solution was then removed, and the cells were washed twice with fresh phenol-red-free and serum-free DMEM to remove the redundant extracellular DCFH-DA probe. Subsequently, N2a cells were incubated with pre-warmed phenol-red free DMEM containing 1% FBS as an untreated control and with solutions dissolved in phenol-red free DMEM containing 1% FBS of Fer-Ger (1, 5, or 10 µM) or 100 µM ascorbic acid (AA, as an established antioxidant positive control) and incubated for 1 h in a humidified 5% CO2 atmosphere at 37 °C. After this time, 100 µM H2O2 was added in the absence or presence of 1, 5 or 10 µM Fer-Ger or 100 µM AA, and the fluorescence intensity was measured at an excitation wavelength of 485 nm and at an emission wavelength of 530 nm, monitoring the oxidation of DCFH to DCF by the intracellular ROS by running the kinetic over 75 min in a fluorescence microplate reader (VICTOR^3TM 1420 Multilabel counter, PerkinElmer, Milan, Italy). Results were represented as a percentage of intracellular ROS production (100% of control) resulting from the mean values ± SEM of sextuplicate wells over time.

COc1cc(/C=C/C(=O)O)ccc1O [Fer, ferulic acid]
in vivo half-lives [1]: ≤ 30 min | drug loading [2]: 0.38 % w/w | encapsulation efficiency (EE) [2]: about 14%

COC(=O)/C=C/c1ccc(OC(=O)/C=C/c2ccc(O)c(OC)c2)c(OC)c1 [Fer-Fer-Me]
half-life of hydrolysis [3]: about 14 min | drug loading [2]: 0.49 % w/w | encapsulation efficiency (EE) [2]: about 19%

COc1cc(C=CC(=O)Oc2ccc(C=CC(=O)O)cc2OC)ccc1O [Fer-Fer]
amount hydrolyzed [3]: about 50%

COC(=O)/C=C/c1ccc(O)c(OC)c1 [Fer-Me]
hydrolysis [3]: total absence of hydrolysis processes | drug loading [2]: 0.72 % w/w | encapsulation efficiency (EE) [2]: about 28%

CC(C)=CCCC(C)=CCOC(=O)CCC(C)C1CCC2C3C(O)CC4CC(O)CCC4(C)C3CCC12C (stereo not shown) [GER-UDCA]
half-life of hydrolysis [4]: higher than 30 min | amount hydrolyzed [3]: about 30%

CC(C)=CCC/C(C)=C/CO [Ger, geraniol]
in vivo half-lives [1]: ≤ 30 min | Log P [5]: 3.56

OO [H2O2, hydrogen peroxide, reference compound]
reduction of cell viability compared to untreated cells (differentiated N2a cells [6]): 74% | effect on DCF fluorescence (ROS production) (differentiated N2a cells [7]; 100 µM H2O2, 75 min observation): significantly and time-dependently increased DCF fluorescence

Cc1cn([C@H]2C[C@H](N=[N+]=[N-])[C@@H](COC(=O)CC[C@@H](C)[C@H]3CC[C@H]4[C@@H]5[C@@H](O)C[C@@H]6C[C@H](O)CC[C@]6(C)[C@H]5CC[C@]34C)O2)c(=O)[nH]c1=O [UDCA-AZT]
hydrolysis rate ([4]; ref our previous results): the same hydrolysis rate as Fer-Ger | half-life of hydrolysis [3]: about 7 min | drug loading [2]: 0.57 % w/w | encapsulation efficiency (EE) [2]: about 26%

O=C1O[C@H]([C@@H](O)CO)C(O)=C1O [ascorbic acid]
effect on basal ROS production (differentiated N2a cells [7]; 100 µM ascorbic acid alone): without by itself modifying basal ROS production | effect on H2O2-induced ROS production (differentiated N2a cells [7]; 100 µM ascorbic acid with 100 µM H2O2): completely prevented the H2O2-induced ROS production
